PMC3376186 (Bioorganic & medicinal chemistry letters, 2012)
pEC50: −log10 of the molar value. One block for each compound: values may come before it.

What was measured:
[1] = Mouse plasma and brain exposure after IP dose; type: in vivo, C57Bl6 mice
[2] = molecular target: T1, Rev-erbα (Homo sapiens, UniProt P20393); settings: circular dichroism analysis; cited from earlier work
T1 sequence (P20393 1-614): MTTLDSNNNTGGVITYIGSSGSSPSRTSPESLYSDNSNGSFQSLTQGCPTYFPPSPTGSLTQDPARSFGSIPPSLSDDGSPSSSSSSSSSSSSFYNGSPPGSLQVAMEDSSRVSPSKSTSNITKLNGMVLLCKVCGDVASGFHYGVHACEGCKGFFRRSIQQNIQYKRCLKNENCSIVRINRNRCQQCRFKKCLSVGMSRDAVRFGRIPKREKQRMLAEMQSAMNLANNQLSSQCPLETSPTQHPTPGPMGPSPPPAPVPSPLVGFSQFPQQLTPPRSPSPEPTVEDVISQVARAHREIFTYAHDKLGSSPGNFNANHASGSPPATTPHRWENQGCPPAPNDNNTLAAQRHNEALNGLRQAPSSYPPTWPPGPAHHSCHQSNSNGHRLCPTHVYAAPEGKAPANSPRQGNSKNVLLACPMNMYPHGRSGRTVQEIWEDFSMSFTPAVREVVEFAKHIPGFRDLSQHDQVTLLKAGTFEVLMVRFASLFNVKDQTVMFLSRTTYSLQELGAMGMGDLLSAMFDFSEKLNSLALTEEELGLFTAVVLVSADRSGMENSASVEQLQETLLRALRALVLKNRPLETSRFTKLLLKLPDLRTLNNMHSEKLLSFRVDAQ

[3] = molecular target: T1, Rev-erbα; settings: HEK293 cells, Gal4 DBD:REV-ERB LBD α; cited from earlier work
[4] = tested on: REV-ERB ligand binding domain (LBD) β; settings: HEK293 cells, Gal4 DBD:REV-ERB LBD β; cited from earlier work
[5] = tested on: Rev-erbα-NCoR interaction; settings: read-out: EC50, enhancement of Rev-erbα-NCoR interaction; FRET assay; cited from earlier work
[6] = molecular target: T1, Rev-erbα; settings: Luminex technology; cited from earlier work
[7] = tested on: Rev-erbβ; settings: Luminex technology; cited from earlier work
[8] = tested on: LRH1; settings: same FRET assay; reported; cited from earlier work
[9] = tested on: SF1; settings: same FRET assay; reported; cited from earlier work
[10] = tested on: FXR; settings: same FRET assay; reported; cited from earlier work
[11] = tested on: RORα; settings: same FRET assay; reported; cited from earlier work
[12] = tested on: LXRα; settings: reporter-gene assay; reported; cited from earlier work
[13] = tested on: LXRβ; settings: reporter-gene assay; reported; cited from earlier work

Kp at 2 h ([1]; C57Bl6, mouse, brain, ip, 10 mg/kg): 2.42
SMILES: CS(=O)(=O)N1CCC(CN(Cc2ccc(Cl)cc2)Cc2ccc([N+](=O)[O-])s2)C1 (stereo not drawn) [Compound 12j]

SMILES: CCOC(=O)N1CCC(CN(Cc2ccc(Cl)cc2)Cc2ccc([N+](=O)[O-])s2)C1 (stereo not drawn) [Compound 12e]
[Brain] ([1]; mice, 50 mg/kg IP in 15% cremaphor EL, brain levels at 8h): ^d8.7 μM
Direct binding to Rev-erbα [2]: confirmed
Rev-erb-dependent repressor activity (LBD α) [3]: dose-dependently increased
Rev-erb-dependent repressor activity (LBD β) [4]: dose-dependently increased

SMILES: CC(C)(C)OC(=O)CN(Cc1ccc(Cl)cc1)Cc1ccc([N+](=O)[O-])s1 [Compound 1]
b.p. (brain penetration) ([1]; mice, 10 mg/kg IP in 10:10:80 DMSO:Tween:water, t = 2h): 140%
pEC50 [5]: 6.40
interaction of Rev-erbα with the NCoR peptide [6]: dose-dependently increased
interaction of Rev-erbβ with the NCoR peptide [7]: dose-dependently increased
activity on LRH1 [8]: no activity
activity on SF1 [9]: no activity
activity on FXR [10]: no activity
activity on RORα [11]: no activity
activity on LXRα [12]: no activity
activity on LXRβ [13]: no activity
